Where a name gives a salt, the structure may show the parent alone. Active and inactive are the calls of the source.
Legend:
Paired box protein Pax-8 = Paired box protein Pax-8 (Homo sapiens, UniProt Q06710); experiment: inhibitors of PAX8-driven TPO luciferase reporter, dose response, RMG-I cells, cherry-pick (AID 687027); format: functional, cell-based;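 note: luciferase reporter driven by Pax8 target thyroperoxidase promoter measured by SteadyGlo luminescence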
[1] = A2780 ovarian cancer cell cytotoxicity, dose response, cytotoxicity control, plate reader, dry powder samples (AID 743046); format: functional, cell-based
[2] = NIH:OVCAR-3 ovarian cancer cell cytotoxicity, dose response, PAX8 inhibitor project, plate reader, dry powder samples (AID 743044); format: functional, cell-based
[3] = IGROV1 ovarian cancer cell cytotoxicity, dose response, PAX8 inhibitor project, plate reader, dry powder samples (AID 743043); format: functional, cell-based; settings: IGROV-1
[4] = cytotoxicity in OVCAR8 ovarian cancer cells, dose response, PAX8 project, cell-based, plate reader, dry powder samples (AID 743197); format: functional; settings: OVCAR-8
[5] = T. cruzi growth inhibition in host cells, dose response, cell-based, plate reader, dry powder, set 2 (AID 652275); format: functional
[6] = inhibitors of intracellular T. cruzi replication, confirmation, NIH3T3 host cells, beta-gal luminescence (AID 2044); format: functional, cell-based;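 note: intracellular parasites grown in NIH/3T3 mouse fibroblasts as host cells; luminescent beta-galactosidase reporter signal from transgenic T. cruzi replicating inside host cells; inhibitors lower the luminescence signal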
[7] = cytotoxicity toward NIH3T3 fibroblasts, dose response, counter-screen, cell-based, ATP luminescence, mouse fibroblasts (AID 2010); format: functional;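 note: cells exposed to compound for about 90 hours before reading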
[8] = target: T1, Carboxy-terminal domain RNA polymerase II polypeptide A small phosphatase 1 (Homo sapiens, UniProt Q9GZU7); experiment: inhibitors of CTDSP1, concentration-response testing, biochemical assay, absorbance-based, actives from ultra-high-throughput screening (AID 540297); format: functional
T1 sequence (Q9GZU7 whole entry): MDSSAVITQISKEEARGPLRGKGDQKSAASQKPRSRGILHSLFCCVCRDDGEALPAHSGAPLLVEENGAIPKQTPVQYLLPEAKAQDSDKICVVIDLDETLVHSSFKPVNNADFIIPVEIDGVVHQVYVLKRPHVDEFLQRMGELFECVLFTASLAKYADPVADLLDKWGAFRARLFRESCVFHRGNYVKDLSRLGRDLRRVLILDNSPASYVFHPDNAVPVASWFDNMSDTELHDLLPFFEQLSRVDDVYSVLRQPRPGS

[9] = target: T2, Endoribonuclease toxin MazF (Escherichia coli K-12, UniProt P0AE70); experiment: MazF toxin RNase activators, dose response, biochemical, fluorescence, single-stranded RNA substrate, uHTS hits (AID 588481); format: functional
T2 sequence (P0AE70 whole entry): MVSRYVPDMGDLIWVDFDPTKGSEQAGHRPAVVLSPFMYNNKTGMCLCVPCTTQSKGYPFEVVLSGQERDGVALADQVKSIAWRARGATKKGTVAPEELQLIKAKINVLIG

[10] = target: T2, Endoribonuclease toxin MazF; experiment: fluorescent RNA oligo signal without MazF, dose response, counter-screen for MazEF activator project, biochemical, fluorescence, single-stranded RNase substrate (AID 588502); format: functional
INS1 = experiment: beta cell apoptosis inhibitors, cytokine rescue, dose response, luminescence, retest (AID 449756); format: functional, cell-based; settings: Rattus norvegicus;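 note: cell death triggered by IL-1 beta plus TNF-alpha plus IFN-gamma mixture; protective hits raise ATP signal compared with cytokine alone wells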
Vero = experiment: cells; format: functional; settings: Chlorocebus sabaeus
[11] = tested on: Streptococcus sp. 'group A'; experiment: growth inhibition of control SK(-) GAS strain, dose response, counter-screen for streptokinase expression inhibitor project, luminescence, kanamycin, BacTiterGlo, confirmation (AID 1900); format: functional, organism-based
BJ [12] = experiment: cytotoxicity toward BJ-TERT fibroblasts, dose response, cell-based, RAS-independent, luminescence (AID 1933); format: functional; settings: Homo sapiens
BJ [13] = experiment: cells; format: functional, cell-based; settings: Homo sapiens
BJ [14] = experiment: cytotoxicity toward BJ-TERT-LT-ST fibroblasts, dose response, cell-based, RAS-independent, luminescence (AID 1935); format: functional; settings: Homo sapiens;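 note: BJ fibroblasts immortalized with TERT plus LT and ST oncogenes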
[15] = cytotoxicity toward DRD oncogenic fibroblasts, dose response, cell-based, non-viral oncogenic, luminescence (AID 1934); format: functional; settings: Homo sapiens
Streptococcus = experiment: Group A Streptococcus viability loss, dose response, counter-screen for streptokinase expression inhibitor project, luminescence, BacTiterGlo (AID 1915); format: functional, organism-based;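 note: potency for reduction of bacterial viability or growth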
BJ [16] = experiment: cytotoxicity toward Ras-transformed BJeLR fibroblasts, dose response, cell-based, alamar blue fluorescence, cherrypicked samples (AID 2631); format: functional; settings: Homo sapiens;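 note: confirmatory dose-response assay in RAS-dependent BJ fibroblasts engineered with TERT, LT and ST, with cytotoxicity read by fluorescence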
[17] = target: DNA dC->dU-editing enzyme APOBEC-3A (Homo sapiens, UniProt P31941); experiment: Dose Response confirmation of small molecule APOBEC3A DNA Deaminase Inhibitors via a fluorescence-based single-stranded DNA deaminase assay. [Related pubchem assays (depositor defined):AID493011, AID493024]; format: functional
[18] = target: DNA dC->dU-editing enzyme APOBEC-3G (Homo sapiens, UniProt Q9HC16); format: functional;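 note: Dose-response counterscreen measuring inhibition of APOBEC3G DNA deaminase activity, run while confirming APOBEC3A inhibitors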
[19] = inhibitors of firefly luciferase expression or activity, dose response, H4 neuroglioma cells, luminescence (AID 1990); format: functional, cell-based
[20] = Luminescence Cell-Based Dose Response HTS to Identify Inhibitors of 5'UTR Stem-Loop Driven Prion Protein mRNA Translation in H4 Neuroglioblastoma Cells. [Related pubchem assays: 1827 (Project Summary), 1813 (Primary HTS)]; format: functional
[21] = inhibitors of SNCA 5'UTR-driven reporter translation, confirmation, H4 neuroglioma cells, luminescence (AID 1988); format: functional, cell-based

Chain of Paired box protein Pax-8 (Q06710 whole entry): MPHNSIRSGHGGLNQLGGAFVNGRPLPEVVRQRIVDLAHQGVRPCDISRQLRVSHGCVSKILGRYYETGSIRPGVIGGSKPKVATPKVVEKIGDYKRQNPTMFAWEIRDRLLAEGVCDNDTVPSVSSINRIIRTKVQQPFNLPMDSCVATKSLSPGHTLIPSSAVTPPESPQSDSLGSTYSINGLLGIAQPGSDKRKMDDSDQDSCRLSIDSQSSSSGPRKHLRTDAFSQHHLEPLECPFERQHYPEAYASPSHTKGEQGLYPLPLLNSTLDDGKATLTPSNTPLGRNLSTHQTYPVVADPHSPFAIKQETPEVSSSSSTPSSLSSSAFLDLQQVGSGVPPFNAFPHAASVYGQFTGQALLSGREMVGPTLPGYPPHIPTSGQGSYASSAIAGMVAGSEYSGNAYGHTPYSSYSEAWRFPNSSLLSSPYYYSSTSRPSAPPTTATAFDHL
Chain of DNA dC->dU-editing enzyme APOBEC-3G (Q9HC16 whole entry): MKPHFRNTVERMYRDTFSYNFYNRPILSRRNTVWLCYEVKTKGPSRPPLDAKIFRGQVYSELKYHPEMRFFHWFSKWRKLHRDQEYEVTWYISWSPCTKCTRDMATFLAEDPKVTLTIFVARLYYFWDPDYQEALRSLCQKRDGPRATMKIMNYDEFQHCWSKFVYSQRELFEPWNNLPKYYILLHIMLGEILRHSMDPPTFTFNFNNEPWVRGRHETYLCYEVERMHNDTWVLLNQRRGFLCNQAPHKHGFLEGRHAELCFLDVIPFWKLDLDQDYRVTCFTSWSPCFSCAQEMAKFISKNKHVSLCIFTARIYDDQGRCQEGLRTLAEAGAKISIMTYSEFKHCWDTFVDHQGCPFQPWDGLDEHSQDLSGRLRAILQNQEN
Chain of DNA dC->dU-editing enzyme APOBEC-3A (P31941 whole entry): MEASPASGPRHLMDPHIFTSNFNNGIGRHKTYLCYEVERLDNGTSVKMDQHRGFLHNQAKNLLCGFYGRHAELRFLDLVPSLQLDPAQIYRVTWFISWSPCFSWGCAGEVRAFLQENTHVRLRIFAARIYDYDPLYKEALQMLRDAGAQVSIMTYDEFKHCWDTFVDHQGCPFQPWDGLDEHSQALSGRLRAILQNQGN

In the case of `Cc1ccc(S(=O)(=O)Nc2ccc3c(c2)C(=O)N([C@H](C)CO)C[C@@H](C)[C@@H](CN(C)CC2CCCCC2)OCCCC[C@@H](C)O3)cc1`, the AC50 (Paired box protein Pax-8) is reported as 5.51 µM (active), the AC50 [1] is reported as 38.2 µM (active) and the AC50 [2] is reported as 26.5 µM (active). For the same compound, the AC50 [3] was 38.8 µM (active) and the AC50 [4] was 40.4 µM (active).
With `C[C@@H]1CN([C@H](C)CO)C(=O)c2cc(NC(=O)Nc3ccc(C(F)(F)F)cc3)ccc2O[C@@H](C)CCCCO[C@@H]1CN(C)Cc1ccc(Cl)c(Cl)c1` the AC50 (Paired box protein Pax-8) was 5 µM (active), the AC50 [1] was 39.1 µM (active) and the AC50 [2] was 20.7 µM (active). The AC50 [4] was 29.1 µM (active).
With `CC(C)N1C[C@H](C)[C@@H](CN(C)Cc2ccc(Cl)c(Cl)c2)Oc2c(cccc2-c2nnc(-c3ccncc3)o2)C1=O` the AC50 [5] was 0.0624 µM (active).
For `CC(C)N1C[C@@H](CN(C)Cc2ccc(Cl)c(Cl)c2)Oc2c(NC(=O)c3ccncc3)cccc2C1=O`, the AC50 [5] was 0.000485 µM (active).
With `COC[C@H](C)N1C[C@H](C)[C@@H](CN(C)Cc2ccc(Oc3ccccc3)cc2)Oc2c(NC(=O)c3ccncc3)cccc2C1=O` the AC50 [5] was 0.00119 µM (active).
With `Cc1cc(C(=O)N/N=C/c2ccc(-c3ccccc3Cl)o2)[nH]n1` the EC50 [6] was 1.5 µM (active), the EC50 [7] was > 60 µM (not active) and the IC50 [8] was 11.5 µM (active).
With `CN(C)Cc1c(C(=O)N/N=C/c2cccc(OCc3ccc(F)cc3)c2)nnn1-c1nonc1N` the EC50 [9] was 45.2 µM (inactive) and the EC50 [10] was > 99 µM (inactive).
With `COc1ccc(C2=Nn3c(nnc3-c3ccccc3Cl)SC2)cc1OC1CCCC1` the AC50 (INS1) was 42.7 µM (active) and the CC50 (Vero) was 10.7 µM (active).
In the case of `Cc1cccc(NC2=NC(N)=NC(C)(C)N2)c1`, the EC50 [11] is reported as < 0.06 µM (active), the EC50 (BJ [12]) is reported as > 150 µM (not active) and the EC50 (BJ [13]) is reported as 1.26 µM (inconclusive). The EC50 (BJ [14]) was > 150 µM (not active), the EC50 [15] was 1.48 µM (active) and the EC50 (Streptococcus) was 0.478 µM (active). For the same compound, the EC50 (BJ [16]) was > 133 µM (inactive).
With `COc1ccc(CN2CCNCC2)c(OC)c1OC` [TRIMETAZIDINE DIHYDROCHLORIDE] the IC50 [17] was 8.26 µM (active), the IC50 [18] was 7.19 µM (active) and the IC50 [8] was 8.85 µM (active).
In the case of `CC(C)[C@]12O[C@H]1[C@@H]1O[C@]13[C@]1(O[C@H]1C[C@H]1C4=C(CC[C@@]13C)C(=O)OC4)[C@@H]2O` [TRIPTOLIDE], the EC50 [19] is reported as < 0.1 µM (active), the EC50 [20] is reported as < 0.1 µM (active) and the EC50 [21] is reported as < 0.1 µM (active). The EC50 (BJ [16]) was < 0.104 µM (active).
